Measurements taken from PubChem BioAssay (NCI).
Where “and” joins values, the source holds several entries; their conditions need not be identical. Identical values can stand only once.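 Growth conditions: 96-well plates. Treatment: test compound, 48 hours, 5 concentrations. Analysis: linear interpolation between bracketing concentrations; unreached endpoints set to highest concentration. At the GI50, growth is halved. TGI: concentration producing complete growth inhibition.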

Assays:
Test in all cases: DTP human tumour cell line panel, 48 h
A549 NSCLC = tested on: A549 NSCLC
ACHN renal = tested on: ACHN renal
CAKI-1 renal = tested on: CAKI-1 renal
COLO 205 colon = tested on: COLO 205 colon
HCT-116 colon = tested on: HCT-116 colon
HOP-62 NSCLC = tested on: HOP-62 NSCLC
K-562 leukemia = tested on: K-562 leukemia
NCI-H226 lung = tested on: NCI-H226 lung
NCI-H23 lung = tested on: NCI-H23 lung
OVCAR-4 ovarian = tested on: OVCAR-4 ovarian
OVCAR-5 ovarian = tested on: OVCAR-5 ovarian
OVCAR-8 ovarian = tested on: OVCAR-8 ovarian
RPMI-8226 leukemia = tested on: RPMI-8226 leukemia
SNB-19 CNS = tested on: SNB-19 CNS
SNB-75 CNS = tested on: SNB-75 CNS
SR leukemia = tested on: SR leukemia
U251 CNS = tested on: U251 CNS
UACC-62 melanoma = tested on: UACC-62 melanoma
HL-60(TB) leukemia = tested on: HL-60(TB) leukemia

C=C1C(=O)O[C@H]2C/C(C)=C/CC[C@]3(C)CCC[C@](C)(CC[C@@H]12)O3
TGI (A549 NSCLC): > 50 µM
TGI (ACHN renal): 17.2 µM
TGI (CAKI-1 renal): 25.7 µM
TGI (COLO 205 colon): 14.8 µM
TGI (HCT-116 colon): 20.1 µM
TGI (HOP-62 NSCLC): > 50 µM
TGI (K-562 leukemia): 18.8 µM
TGI (NCI-H226 lung): 27.7 µM
TGI (NCI-H23 lung): 27.2 µM
TGI (OVCAR-4 ovarian): 43.7 µM
TGI (OVCAR-5 ovarian): > 50 µM
TGI (OVCAR-8 ovarian): 15.2 µM
TGI (RPMI-8226 leukemia): 20 µM
TGI (SNB-19 CNS): > 50 µM
TGI (SNB-75 CNS): 43.6 µM
TGI (SR leukemia): 22.5 µM
TGI (U251 CNS): 17.7 µM
TGI (UACC-62 melanoma): 24.4 µM

Cc1ccc(NC(=O)CSc2nnc(Cc3ccccc3)o2)cc1
TGI (A549 NSCLC): > 100 µM
TGI (ACHN renal): > 100 µM
TGI (CAKI-1 renal): > 100 µM
TGI (COLO 205 colon): > 100 µM
TGI (HCT-116 colon): > 100 µM
TGI (HOP-62 NSCLC): > 100 µM
TGI (K-562 leukemia): > 100 µM
TGI (NCI-H226 lung): > 100 µM
TGI (NCI-H23 lung): > 100 µM
TGI (OVCAR-4 ovarian): > 100 µM
TGI (OVCAR-5 ovarian): > 100 µM
TGI (OVCAR-8 ovarian): > 100 µM
TGI (RPMI-8226 leukemia): > 100 µM
TGI (SNB-19 CNS): > 100 µM
TGI (SNB-75 CNS): > 100 µM
TGI (U251 CNS): > 100 µM
TGI (UACC-62 melanoma): > 100 µM

[N-]=[N+]=Nc1ccc2c(c1)Sc1ccccc1N2CCCCN1CCN(Cc2ccc(C(=O)c3ccc(CSCC(N)C(=O)O)cc3)cc2)CC1 (centres undefined)
TGI (ACHN renal): > 100 µM
TGI (CAKI-1 renal): 67 µM
TGI (COLO 205 colon): 40.1 µM
TGI (HCT-116 colon): 29.5 µM
TGI (HL-60(TB) leukemia): 30.8 µM
TGI (HOP-62 NSCLC): 57.3 µM
TGI (K-562 leukemia): 44.9 µM
TGI (NCI-H226 lung): 35.6 µM
TGI (NCI-H23 lung): 74.2 µM
TGI (OVCAR-4 ovarian): > 100 µM
TGI (OVCAR-5 ovarian): > 100 µM
TGI (RPMI-8226 leukemia): > 100 µM
TGI (U251 CNS): 26.4 µM
TGI (UACC-62 melanoma): 24.4 µM

Cc1cc(S(=O)(=O)NC2=NCCN2Cc2ccccc2)c(S)cc1Cl
TGI (A549 NSCLC): > 100 µM
TGI (ACHN renal): > 100 µM
TGI (CAKI-1 renal): > 100 µM
TGI (COLO 205 colon): > 100 µM
TGI (HCT-116 colon): > 100 µM
TGI (HL-60(TB) leukemia): > 100 µM
TGI (HOP-62 NSCLC): > 100 µM
TGI (K-562 leukemia): > 100 µM
TGI (NCI-H226 lung): > 100 µM
TGI (NCI-H23 lung): > 100 µM
TGI (OVCAR-4 ovarian): > 100 µM
TGI (OVCAR-5 ovarian): > 100 µM
TGI (OVCAR-8 ovarian): > 100 µM
TGI (RPMI-8226 leukemia): > 100 µM
TGI (SNB-19 CNS): > 100 µM
TGI (SNB-75 CNS): > 100 µM
TGI (U251 CNS): > 100 µM
TGI (UACC-62 melanoma): > 100 µM

CC(=O)OCC1OC(n2c(N)c(C#N)c(C)c(C#N)c2=S)C(OC(C)=O)C(OC(C)=O)C1OC(C)=O (centres undefined)
TGI (A549 NSCLC): > 100 µM
TGI (ACHN renal): > 100 µM
TGI (CAKI-1 renal): > 100 µM
TGI (COLO 205 colon): > 100 µM
TGI (HCT-116 colon): > 100 µM
TGI (HOP-62 NSCLC): > 100 µM
TGI (NCI-H226 lung): > 100 µM
TGI (NCI-H23 lung): > 100 µM
TGI (OVCAR-4 ovarian): > 100 µM
TGI (OVCAR-5 ovarian): > 100 µM
TGI (OVCAR-8 ovarian): > 100 µM
TGI (RPMI-8226 leukemia): > 100 µM
TGI (SNB-19 CNS): > 100 µM
TGI (SNB-75 CNS): > 100 µM
GI50 (SR leukemia): 39.5 µM and > 100 µM
TGI (SR leukemia): > 100 µM
TGI (U251 CNS): > 100 µM
TGI (UACC-62 melanoma): > 100 µM

COc1cc(C2c3cc4c(cc3OC(NCCc3ccccc3)C2C)OCO4)cc(OC)c1OC (centres undefined)
TGI (A549 NSCLC): > 90.4 µM
TGI (ACHN renal): > 51.8 µM
TGI (CAKI-1 renal): 0.939 µM
TGI (COLO 205 colon): 0.605 µM
TGI (HCT-116 colon): 18.6 µM
TGI (HL-60(TB) leukemia): 0.547 µM
TGI (HOP-62 NSCLC): > 70.3 µM
TGI (K-562 leukemia): 16.9 µM
TGI (NCI-H226 lung): 7.43 µM
TGI (NCI-H23 lung): > 20.9 µM
TGI (OVCAR-4 ovarian): > 47.7 µM
TGI (OVCAR-5 ovarian): > 100 µM
TGI (OVCAR-8 ovarian): > 100 µM
TGI (RPMI-8226 leukemia): 14.7 µM
TGI (SNB-19 CNS): > 100 µM
TGI (SNB-75 CNS): 0.488 µM
TGI (U251 CNS): 14.7 µM
TGI (UACC-62 melanoma): 35.3 µM

CN(C)/C=N\c1nncc2[nH]cnc12
TGI (A549 NSCLC): > 100 µM
TGI (ACHN renal): > 100 µM
TGI (CAKI-1 renal): > 100 µM
TGI (COLO 205 colon): > 100 µM
TGI (HCT-116 colon): > 100 µM
TGI (HOP-62 NSCLC): > 100 µM
TGI (K-562 leukemia): > 100 µM
TGI (NCI-H226 lung): > 100 µM
TGI (NCI-H23 lung): > 100 µM
TGI (OVCAR-4 ovarian): > 100 µM
TGI (OVCAR-5 ovarian): > 100 µM
TGI (OVCAR-8 ovarian): > 100 µM
TGI (RPMI-8226 leukemia): > 100 µM
TGI (SNB-75 CNS): > 100 µM
TGI (U251 CNS): > 100 µM
TGI (UACC-62 melanoma): > 100 µM
